Values quoted from earlier work, collected in patent US20220387435A1, “USE OF MULTI-TARGET PROTEIN KINASE INHIBITOR” (CSPC Zhongqi Pharmaceutical Technology (Shijiazhuang) Co., …, priority 2019, published 2022).
“Also recorded” adds a separate entry of the source.

Experiments:
AML patients [1] = details: cited from earlier work; for Main toxicity: similar products, prior art
AML patients [2] = details: cited from earlier work; for CR rates in monotherapy for R/R AML: Sorafenib 400 mg BID, Midostaurin 50 mg BID, Quizartinib 30-60 mg QD, Gilteritinib 120 mg QD
FLT3-TKD mutation = details: similar products, prior art; cited from earlier work
[3] = 120 mg daily, N = 246, ADMIRAL trial
[4] = phase 3 clinical trial of Gilteritinib
[5] = phase 3 clinical trial of Quizatinib
[6] = phase II trial of oral Quizartinib, relapsed/refractory AML
[7] = phase II trial of oral Quizartinib

SMILES: CCc1nc(C(N)=O)c(Nc2ccc(N3CCC(N4CCN(C)CC4)CC3)c(OC)c2)nc1NC1CCOCC1 [Gilteritinib]
- Most common ADRs of grade ≥ 3: Anemia (AML patients [1]; [3]): 100 (40.7%)
- Most common ADRs of grade ≥ 3: Febrile neutropenia (AML patients [1]; [3]): 113 (45.9%)
- Most common ADRs of grade ≥ 3: Thrombocytopenia (AML patients [1]; [3]): 56 (22.8%)
- Cardiotoxicity ADR: Cardiac failure (AML patients [1]; 120 mg daily, N = 292): 4%
- Cardiotoxicity ADR: Pericardial effusion (AML patients [1]; 120 mg daily, N = 292): 3%
- Cardiotoxicity ADR: Pericarditis (AML patients [1]; 120 mg daily, N = 292): 2%
- Cardiotoxicity ADR: QT interval prolongation (AML patients [1]; 120 mg daily, N = 292): 8.4%
- incidence of ALT elevation of all grades (AML patients [1]; [4]): 26.3%
- incidence of ALT elevation of grade ≥3 (AML patients [1]; [4]): 12.9%
- incidence of AST elevation of all grades (AML patients [1]; [4]): 80.6%
- incidence of QT interval prolongation of all grades (AML patients [1]; [4]): 8.8%
- incidence of QT interval prolongation of grade ≥3 (AML patients [1]; [4]): 2.5%
- Main toxicity (AML patients [1]): Transaminase; also recorded: diarrhea

SMILES: CO[C@@H]1[C@H](N(C)C(=O)c2ccccc2)C[C@H]2O[C@]1(C)n1c3ccccc3c3c4c(c5c6ccccc6n2c5c31)C(=O)NC4 [Midostaurin]
- Main toxicity (AML patients [1]): Gastrointestinal; also recorded: myelosuppression

SMILES: CC(C)(C)c1cc(NC(=O)Nc2ccc(-c3cn4c(n3)sc3cc(OCCN5CCOCC5)ccc34)cc2)no1 [Quizartinib]
- CR (AML patients [2]; Quizatinib Japan phase 2 53 mg 26 cases, prior lines not limited): 0 cases
- CR rates in monotherapy for R/R AML (AML patients [2]): 24-47%
- serious hematological adverse reaction: anemia (AML patients [1]; [5]): 25.9%
- serious hematological adverse reaction: cytopenia (AML patients [1]; [5]): 2.5%
- serious hematological adverse reaction: febrile neutropenia (AML patients [1]; [5]): 15.8%
- serious hematological adverse reaction: leukopenia (AML patients [1]; [5]): 18.0%
- serious hematological adverse reaction: lymphopenia (AML patients [1]; [5]): 4.0%
- serious hematological adverse reaction: neutropenia (AML patients [1]; [5]): 25.9%
- serious hematological adverse reaction: thrombocytopenia (AML patients [1]; [5]): 34.2%
- adverse reaction: anemia (AML patients [1]; [6]): 29%
- adverse reaction: diarrhea (AML patients [1]; [6]): 20%
- adverse reaction: fatigue (AML patients [1]; [6]): 20%
- adverse reaction: febrile neutropenia (AML patients [1]; [6]): 25%
- adverse reaction: nausea (AML patients [1]; [6]): 38%
- adverse reaction: vomiting (AML patients [1]; [6]): 26%
- dose-limiting toxicity response (AML patients [1]; [7]): QT prolongation of Grade 3
- patients discontinuing the treatment due to adverse events (AML patients [1]; [7]): 10%
- Main toxicity (AML patients [1]): QTinterval; also recorded: myelosuppression

SMILES: CNC(=O)c1cc(Oc2ccc(NC(=O)Nc3ccc(Cl)c(C(F)(F)F)c3)cc2)ccn1 [Sorafenib]
- CR rates in monotherapy for R/R AML (AML patients [2]): <10%
- Main toxicity (AML patients [1]): Rash, bleeding,; also recorded: myelosuppression
- FLT3-TKD mutation activity (FLT3-TKD mutation): No
